Data published in patent publication US20130303485A1, “Compositions for Oral Administration of Zoledronic Acid or Related Compounds for Treating Disease” (priority 2012, published 2013).
Like-named read-outs stand apart in the source and are kept apart here.

Experiments:
physchem = assay: physchem
Procedure: The aqueous solubility of zoledronic acid and disodium zoledronate tetrahydrate was determined. One gram of the test compound was measured in to a beaker. Demineralized water (pH 5.5) was then added in small increments to the test compound, and sonification was applied to the mixture. The procedure was continued until complete dissolution was achieved. Full dissolution was determined to have been reached when a clear solution was present with no visible material. The volume of water required to reach full dissolution was used to calculate a solubility value expressed in grams per 100 mL. The procedure was performed for each compound.

[1] = test system: rat complete Freund's adjuvant (CFA) model of arthritis pain; assay: Rat complete Freund's adjuvant (CFA) model of arthritis pain, paw compression threshold (Randall-Selitto); assay type: in vivo; settings: evaluated day 14 post CFA
Procedure: The effect of orally administered zoledronic acid on arthritis pain was examined in the rat complete Freund's adjuvant (CFA) model of arthritis pain. In this model, injection of 100% complete Freund's adjuvant (CFA) in a […] volume into the left hind paws is followed by a 10-14 day period to allow for the development of arthritis pain. Animals were orally administered vehicle (control), zoledronic acid 54 mg/m^2 (or 9 mg/kg), or zoledronic acid 360 mg/m^2 (or 60 mg/kg), divided in three equal daily doses on the first three days post CFA injection. Drug was dissolved in distilled water and prepared fresh daily. Animals were fasted prior to dosing.
Arthritis pain (mechanical hyperalgesia) in the vehicle and drug-treated animals was evaluated on day 14 post CFA injection using a digital Randall-Selitto device (dRS; IITC Life Sciences, Woodland Hills, Calif.). Animals were placed in a restraint sling that suspended the animal, leaving the hind limbs available for testing. Paw compression threshold was measured by applying increasing pressure to the plantar surface of the hind paw with a dome-shaped tip placed between the 3rd and 4th metatarsus. Pressure was applied gradually over approximately 10 seconds. […]
Reversal of arthritis pain in the ipsilateral (CFA-injected) paw was calculated according to the formula: […]

[2] = test system: rat tibia fracture model of complex regional pain syndrome (CRPS); assay: Rat tibia fracture model of complex regional pain syndrome (CRPS): hindpaw pain, weight bearing, edema, warmth; assay type: in vivo; settings: oral 18 mg/m^2/day (3 mg/kg/day) for 28 days
Procedure: The effect of orally administered zoledronic acid was examined in the rat tibia fracture model of complex regional pain syndrome (CRPS). CRPS was induced in the rats by fracturing the right distal tibias of the animals and casting the fractured hindpaws for 4 weeks, as described in Guo T Z et al. (Pain. 2004; 108:95-107).
Animals were orally administered either vehicle (control) or zoledronic acid, in a dosage of 18 mg/m^2/day (3 mg/kg/day) for 28 days, starting on the day of fracture and casting. Drug was dissolved in distilled water and administered by gavage. Animals were fasted for 4 hours before and 2 hours after dosing. At the end of the 28-day period, casts were removed, and on the following day, the rats were tested for hindpaw pain, edema, and warmth.
Pain was assessed by measuring hyperalgesia, and weight bearing.
To measure hyperalgesia, an up-down von Frey testing paradigm was used. Rats were placed in a clear plastic cylinder (20 cm in diameter) with a wire mesh bottom and allowed to acclimate for 15 minutes. The paw was tested with one of a series of eight von Frey hairs ranging in stiffness from 0.41 g to 15.14 g. The von Frey hair was applied against the hindpaw plantar skin at approximately midsole, taking care to avoid the tori pads. The fiber was pushed until it slightly bowed and then it was jiggled in that position for 6 seconds. Stimuli were presented at an interval of several seconds. Hindpaw withdrawal from the fiber was considered a positive response. The initial fiber presentation was 2.1 g and the fibers were presented according to the up-down method of Dixon to generate six responses in the immediate vicinity of the 50% threshold. […].
An incapacitance device (IITC Inc. Life Science, Woodland, Calif., USA) was used to measure hindpaw weight bearing, a postural effect of pain. The rats were manually held in a vertical position over the apparatus with the hindpaws resting on separate metal scale plates and the entire weight of the rat was supported on the hindpaws. The duration of each measurement was 6 seconds and 10 consecutive measurements were taken at 60-second intervals. Eight readings (excluding the highest and lowest ones) were averaged to calculate the bilateral hindpaw weight-bearing values. Weight bearing data were analyzed as the ratio between right (fracture) and left hindpaw weight bearing values ((2R/(R+L))×100%).
A laser sensor technique was used to determine the dorsal-ventral thickness of the hindpaw. Before baseline testing the bilateral hindpaws were tattooed with a 2 to 3 mm spot on the dorsal skin over the midpoint of the third metatarsal. […]
The temperature of the hindpaw was measured using a fine wire thermocouple (Omega, Stanford, Conn., USA) applied to the paw skin. […]

[3] = test system: rat complete Freund's adjuvant (CFA) model of inflammatory pain; assay type: in vivo, Sprague-Dawley rats; settings: for improvement in pain threshold from baseline: day three
Procedure: The effect of orally administered zoledronic acid on inflammatory pain was examined using the rat complete Freund's adjuvant (CFA) model. Inflammatory pain was induced by injection of 100% CFA in a 75 μL volume into the left hind paws of Sprague-Dawley rats on day 0, followed by assessments on days 1-3. Animals were orally administered vehicle (control), zoledronic acid 18 mg/m^2 (or 3 mg/kg), zoledronic acid 120 mg/m^2 (or 20 mg/kg), or zoledronic acid 900 mg/m^2 (or 150 mg/kg) daily on days 1-3. Drug was dissolved in distilled water and prepared fresh daily. Animals were fasted prior to dosing. Under current FDA guidelines for extrapolating starting dosages from animals to humans, dosages expressed in mg/m^2 are considered equivalent between mammalian species. Thus, for example, 18 mg/m^2 in a rat is considered equivalent to 18 mg/m^2 in a human being, while 3 mg/kg in a rat may not be equivalent to 3 mg/kg in a human being.
Values for inflammatory pain (mechanical hyperalgesia) in the vehicle and drug-treated animals were obtained on day 0 prior to CFA injection, and at baseline and post-treatment on days 1-3. Pain was assessed using a digital Randall-Selitto device (dRS; IITC Life Sciences, Woodland Hills, Calif.). Animals were placed in a restraint sling that suspended the animal, leaving the hind limbs available for testing. Paw compression threshold was measured by applying increasing pressure to the plantar surface of the hind paw with a dome-shaped tip placed between the 3rd and 4th metatarsus. Pressure was applied gradually over approximately 10 seconds. Measurements were taken from the first observed nocifensive behavior of vocalization, struggle or withdrawal. A cut-off value of 300 g was used to prevent injury to the animal.
Reversal of inflammatory pain was calculated according to the formula:
% reversal=(Post-treatment−Post-CFA baseline)/(Pre-CFA baseline−Post-CFA baseline)×100.
The experiment was carried out using 9-10 animals per group.

[4] = oral 18 mg/m^2 (3 mg/kg) daily on days 1-3
[5] = oral 900 mg/m^2 (150 mg/kg) daily on days 1-3

O.O.O.O.O=P([O-])(O)C(O)(Cn1ccnc1)P(=O)([O-])O.[Na+].[Na+] [disodium zoledronate tetrahydrate]
aqueous solubility (physchem; pH 5.5): ≥ 12.5 g/100 mL

O=P(O)(O)C(O)(Cn1ccnc1)P(=O)(O)O [zoledronic acid]
reversal of arthritis pain ([1]; oral 54 mg/m^2 (9 mg/kg) in three equal daily doses): 33%
reversal of arthritis pain ([1]; oral 360 mg/m^2 (60 mg/kg) in three equal daily doses): 54%
reduction of hindpaw warmth versus vehicle [2]: 5%
reversal of fracture induced pain (von Frey threshold) as compared to vehicle [2]: 77%
hindlimb weight bearing, % of normal ([2]; fracture hindlimb): 86 % of normal
reduction of hindpaw edema versus vehicle ([2]; hindpaw thickness): 60%
solubility (physchem; pH 5.5, water, thermodynamic from solid): ≥ 2500 µg/mL
reversal of inflammatory pain [3, 4]: 29%
improvement in pain threshold from baseline [3, 4]: 49%
paw compression thresholds versus vehicle ([3]; oral 18 mg/m^2, entire measurement period after 30 minutes from start of treatment): higher than for vehicle
paw compression thresholds versus vehicle ([3]; oral 120 mg/m^2 (20 mg/kg) daily, all time points during the assessment period): approximately equal or inferior to vehicle
reversal of inflammatory pain [3, 5]: 48%
improvement in pain threshold from baseline [3, 5]: 83%
toxicity ([3]; oral 900 mg/m^2 (150 mg/kg) daily on days 1-3, two days after cessation of dosing): significant toxicity necessitating euthanization of all the animals in this group
paw compression thresholds versus vehicle ([3]; two higher doses (120 and 900 mg/m^2), first two days of dosing): lower than vehicle
